Laboratory results published in US20210330756A1, “Acetylation of Miro1” (University of South Carolina, priority 2020, published 2021).

Key:
[1] = tested on: rat embryonic cortical neurons; conditions: 10 μM; cited from earlier work
Ac-α-tubulin = test: Immunoblotting for Ac-α-tubulin in adult DRG neurons; format: cell-based, rat
Method: We tested for this specificity in the adult DRG neurons from above by immunoblotting. […] (A) Number of mitochondria in growth cones after exposing DRG cultures to 10 μM TubA versus vehicle (control) for 1 h is shown as average fold-change in number of mitochondria per growth cone±SEM (n=13 axons across three culture preparations; *, P≤0.05 by one-way ANOVA with Bonferroni post hoc analysis). (B) Representative EMs of Remak bundles (arrowheads) in naive Sciatic nerve and nerves after 2 h vehicle (DMSO) or TubA injection are shown. Arrows indicate mitochondria in the unmyelinated axons. Note that a Schwann cell nucleus (asterisk) is seen in the Remak bundle for DMSO image but not the other two micrographs (scale bar=3 μm). (C) Quantification of number of mitochondria per unmyelinated axon from EM images as in B is shown as average±SEM (n≥5; *****, P≤0.0001 by one-way ANOVA with Bonferroni post hoc analysis). (D-F) Quantification for indicated parameters for mitochondrial transport in sciatic nerve in vivo using tetramethylrhodamine, ethyl ester, perchlorate to visualize mitochondria is shown.
For immunoblotting, protein lysates or immunoprecipitates were denatured by boiling in Laemmli sample buffer, fractionated by SDS-PAGE, and transferred to nitrocellulose membranes. Blots were blocked for 1 h at room temperature with 5% nonfat dry milk in TBS with 0.1% Tween 20 (TBST). Primary antibodies diluted in 5% BSA in TBST were added to the membranes and incubated overnight at 4° C. with rocking. Primary antibodies consisted of rabbit anti-Myc (1:2,000; Cell Signaling; 71D10), rabbit anti-RHOT1 antibody (1:1,000; Aviva Systems Biology; ARP44817 P050), rabbit anti-HDAC6 antibody (1:2,000; Cell Signaling; 7558), rabbit anti-ERK1 (1:5,000; Abcam; ab32537), and affinity-purified custom rabbit anti-Miro1-AcK105 (1:2,500; Twiss laboratory, see above) antibodies. For the anti-Miro1-AcK105 antibody, preimmune and test-bleed sera were used at 1:1,000 dilutions to initially evaluate for specificity. […] Signals were detected using ECL Prime (GE Healthcare) after extensive washing.

[2] = tested on: distal axons and growth cones of DRG neurons; test: CALI of Mito-KR to ablate mitochondria in distal axons of DRG cultures; format: cell-based, rat
Description: For this, we turned to chromophore-assisted light inactivation (CALI) to ablate mitochondria from distal axons of DRG cultures expressing mitochondrial-targeted Killer Red (Mito-KR) protein. CALI of KR protein generates reactive oxygen species (ROS) to ˜1,000-fold higher than the fluorescent emission eGFP generates (Sano et al., 2014). Increased ROS production upon CALI of Mito-KR protein leads to mitochondrial damage and ablation of mitochondrial function, including the axonal mitochondria targeted in our experiments (Shibuya and Tsujimoto, 2012; Spillane et al., 2013).
For mitochondrial ablation by CALI, DRG cultures expressing Mito-KR and BFP for 48 h were imaged with the same confocal microscope. Mito-KR was activated with an argon laser at 514 nm continuously for 30 s until there was no detectable signal (100% laser power). After activation, 50 μm of the distal axon shaft and the growth cone were imaged every 30 s over 16 min using 585- and 405-nm laser lines (13 and 15.3% power, respectively).
Vesicle trafficking was quantified using differential ImageJ Difference Tracker Plug-in (Andrews et al., 2010). 50-80-μm long unbranched axon segments at approximately the mid-region between growth cone and cell body were analyzed. Kymographs were generated using ImageJ Kymograph Plug-in. […] The distance between the growth tip at end of the post-CALI sequence and the pre-CALI baseline was measured using LAS-X software. Movement of ≥0.5 μm toward the axon shaft was counted as retracted. Fluorescence emission of the Mito-KR post-CALI was analyzed using ImageJ. For normalizing intensities across FRAP image sets, fluorescence intensity at each time point was scaled using the LAS-X FRAP module so that the residual fluorescence signal at t=0 min (post-bleach) was set at 0 and the prebleach intensity was set at 100% for each bleached ROI. For axon shaft FRAP analyses, each 50-μm bleached ROI was divided into […], and the fluorescence intensity recovery was measured as described above. […] A minimum of 75 unmyelinated axons was analyzed for each nerve. […]

[3] = laminin, TubA 10 μM 1 h or siRNA cotransfection, vs vehicle/siControl

## CN1CCc2c(c3ccccc3n2Cc2ccc(C(=O)NO)cc2)C1 [TubA, tubastatin]
[1]
  histone acetylation: no effect on histone acetylation
  levels of acetyl (Ac) α-tubulin: increases levels of acetyl (Ac) α-tubulin
Ac-α-tubulin; 1 μM
  Ac-α-tubulin levels: clear increase in Ac-α-tubulin levels
Ac-α-tubulin; 10 μM
  Ac-α-tubulin levels: clear increase in Ac-α-tubulin levels
Ac-α-tubulin; 100 μM
  Ac-α-tubulin levels: clear increase in Ac-α-tubulin levels
[2]; MAG-Fc + 10 μM TubA
  effect on MAG-Fc-dependent decrease in Mito-KR recovery after CALI: reversed
[2]; [3]
  growth cone retraction after CALI mitochondrial ablation: majority of the TubA-treated cultures showed no growth cone retraction
  recovery of Mito-KR fluorescence in ROI after CALI: significant recovery of mitochondrial fluorescence
